Two compounds from patent US20100267635A1, “USE OF PROTEASE INHIBITORS AND GRF MOLECULES IN COMBINATION THERAPY” (THERATECHONOLGIES INC., priority 2009, published 2010) can be followed below.

The test system of one data set is CYP3A. In words: Impact of TH9507 on CYP3A activity, concluded from the ritonavir PK interaction study. It is filed as in vivo, human. The following applies: 2 mg TH9507 s.c. days 1 to 7, ritonavir as probe. The source says: (§1) The 90% CIs for the Treatment A/Treatment B LSM ratios for AUC0-t.
Data set [1] in a line: Plasma TH9507 PK (ELISA) on day 6 in the ritonavir interaction study. The class given is in vivo. The following applies: both sexes, human, sc, 2 mg s.c. once daily. The protocol: (§2) 2 ml of TH9507 (1 mg/ml injectable solution) was administered by subcutaneous injection under fasting conditions once daily for 7 consecutive days (daily dose of 2 mg TH9507).
(§3) N=32 healthy adult (male and female) subjects were enrolled. Dosing occurred in two groups.
(§4) PK/statistics: PK parameters were calculated using standard noncompartmental approaches.
(In general: In an ELISA, binding on a coated surface is turned into a signal by an enzyme label.)

Data set [2] in a line: Two-way crossover drug interaction study: plasma ritonavir PK with (Treatment A) and without (Treatment B) TH9507. It is filed as in vivo, human. As for the experimental part: as §2, §3, §4, §1

The term Cmax denotes the maximum level reached in the sampled fluid or tissue. Usually Tmax stands for the time at which the peak concentration occurs. `CC/C=C/CC(=O)N[C@@H](Cc1ccc(O)cc1)C(=O)N[C@@H](C)C(=O)N[C@@H](CC(=O)O)C(=O)N[C@@H](C)C(=O)N[C@H](C(=O)N[C@@H](Cc1ccccc1)C(=O)N[C@H](C(=O)N[C@@H](CC(N)=O)C(=O)N[C@@H](CO)C(=O)N[C@@H](Cc1ccc(O)cc1)C(=O)N[C@@H](CCCNC(=N)N)C(=O)N[C@@H](CCCCN)C(=O)N[C@H](C(=O)N[C@@H](CC(C)C)C(=O)NCC(=O)N[C@@H](CCC(N)=O)C(=O)N[C@@H](CC(C)C)C(=O)N[C@@H](CO)C(=O)N[C@@H](C)C(=O)N[C@@H](CCCNC(=N)N)C(=O)N[C@@H](CCCCN)C(=O)N[C@@H](CC(C)C)C(=O)N[C@@H](CC(C)C)C(=O)N[C@@H](CCC(N)=O)C(=O)N[C@@H](CC(=O)O)C(=O)N[C@H](C(=O)N[C@@H](CCSC)C(=O)N[C@@H](CO)C(=O)N[C@@H](CCCNC(=N)N)C(=O)N[C@@H](CCC(N)=O)C(=O)N[C@@H](CCC(N)=O)C(=O)NCC(=O)N[C@@H](CCC(=O)O)C(=O)N[C@@H](CO)C(=O)N[C@@H](CC(N)=O)C(=O)N[C@@H](CCC(N)=O)C(=O)N[C@@H](CCC(=O)O)C(=O)N[C@@H](CCCNC(=N)N)C(=O)NCC(=O)N[C@@H](C)C(=O)N[C@@H](CCCNC(=N)N)C(=O)N[C@@H](C)C(=O)N[C@@H](CCCNC(=N)N)C(=O)N[C@@H](CC(C)C)C(N)=O)[C@@H](C)CC)C(C)C)[C@@H](C)O)[C@@H](C)CC` [TH9507, (hexenoyl trans-3)hGRF(1-44)NH2]: in the data set with CYP3A, the “impact on CYP3A activity” value was “not significant”. In data set [1] (arithmetic mean), this compound gave a half-life of 6.6 min. In data set [1] (geometric mean), the AUC(0-inf) was 0.79 ng·h/mL, the AUC(0-t) was 0.657 ng·h/mL and the peak level (Cmax) was 2.7 ng/mL. Besides, the Tmax in data set [1] (median) is 9 min.
`CC(C)c1nc(CN(C)C(=O)N[C@H](C(=O)N[C@@H](Cc2ccccc2)C[C@H](O)[C@H](Cc2ccccc2)NC(=O)OCc2cncs2)C(C)C)cs1` [Ritonavir, 1,3-thiazol-5-ylmethyl N-[(2S,3S,5S)-3-hydroxy-5-[(2S)-3-methyl-2-{[methyl({[2-(propan-2-yl)-1,3-thiazol-4-yl]methyl})carbamoyl]amino}butanamido]-1,6-diphenylhexan-2-yl]carbamate] had a Cmax in data set [2] (both sexes, human, plasma, oral, 100 mg) of 453 ng/mL. In data set [2] (both sexes, human, plasma, oral, 100 mg, read-out: AUC0-inf Treatment B), the AUC(0-inf) is 3800 ng·h/mL. Besides, the AUC(0-t) in data set [2] (both sexes, human, plasma, oral, 100 mg, read-out: AUC0-t Treatment B) worked out at 3720 ng·h/mL. Moreover, the half-life in data set [2] (both sexes, human, plasma, oral, 100 mg, read-out: T1/2 Treatment B (converted)) was 6.26 h. For the same compound, the time to peak (Tmax) in data set [2] (both sexes, human, plasma, oral, 100 mg, read-out: Tmax Treatment B) stood at 4.5 h; in data set [2] (both sexes, human, plasma, oral, read-out: Tmax Treatment A), 4.5 h. In addition, the “T1/2 Treatment A” value in data set [2] (plasma ritonavir, with TH9507, arithmetic mean (% CV)) is 5.72 (23.0) h.
